Experimental data reported in patent publication US20150223453A1, “QUATERNARY AMMONIUM ACID COMPOUNDS AND COMPOSITIONS FOR DISINFECTION, SANITIZATION, AND CLEANING” (LONZA INC., priority 2014, published 2015).

Tested on: Pa
Experiment: OECD Quantitative Method for Evaluating Bactericidal Activity of Microbiocides Used on Hard, Non-Porous Surfaces
Assay type: cell-based, Pseudomonas aeruginosa
Settings: for level of efficacy / number of organisms reduced (in words): quaternary ammonium acid compounds based on different acids, summary of the OECD tests
Source text: One acknowledged method for determining micro efficacy is the OECD (Organisation for Economic Co-operation and Development) Quantitative Method for Evaluating Bactericidal Activity of Microbiocides Used on Hard, Non-Porous Surfaces. This method entails inoculating small, stainless steel disks called carriers with inoculum, in the presence of hard water. It is theorized that microorganisms, such as pseudomonas, form a biofilm on these carriers. Due to the size of the disk, the presence of a biofilm and the surface tension of the liquid on the disk, this requires qua-based systems to be generally over-formulated to achieve the required efficacy to pass testing. This provides an unfair advantage to both acids and oxidizers used as biocides because of their innate ability to oxidize steel, remove the biofilm without being affected by hard water. This invention combats this issue by combining the biocidal power of quaternary ammonium compound with the oxidizing power of acid.

[1] = 800 ppm Active/375 ppm Hard Water/5% Organic Soil/5 Minute Contact Time

| Compound | OECD results of Quaternium Ammonium Acid Molecule, Test 1 [1] | OECD results of Quaternium Ammonium Acid Molecule, Test 2 [1] | level of efficacy / number of organisms reduced (in words) | also measured |
| --- | --- | --- | --- | --- |
| CC(=O)[O-].CCCCCCCCCC[N+](C)(C)CCCCCCCCCC [Acetic] | 5.71 | 4.93 | greatest level of efficacy | level of efficacy / number of organisms reduced (in words) (listed as acetic acid): highest number of organisms reduced |
| CCCCCCCCCC[N+](C)(C)CCCCCCCCCC.O=C([O-])CO [Glycolic] | 1.99 | – | – | – |
| CCCCCCCCCC[N+](C)(C)CCCCCCCCCC.O=[N+]([O-])[O-] [Nitric] | 1.94 | – | – | – |
| O=P(O)(O)O [Phosphoric] | – | 4.93 | greatest level of efficacy | level of efficacy / number of organisms reduced (in words) (listed as phosphoric acid): highest number of organisms reduced |
| CCCCCCCCCC[N+](C)(C)CCCCCCCCCC.NS(=O)(=O)[O-] [Sulfamic] | 4.66 | – | greatest level of efficacy | level of efficacy / number of organisms reduced (in words) (listed as sulfamic acid): highest number of organisms reduced |
| O=C(O)C(O)C(O)C(=O)O (stereo not drawn) [Tartaric] | 4.22 | 3.05 | greatest level of efficacy | level of efficacy / number of organisms reduced (in words) (listed as tartaric acid): highest number of organisms reduced |
| Oxalic | 5.54 | – | greatest level of efficacy | level of efficacy / number of organisms reduced (in words) (listed as oxalic acid): highest number of organisms reduced |
| Sulfuric | 3.14 | – | – | – |
| didecyl dimethyl ammonium carbonate/bicarbonate [Quat Carbonate, reference compound] | – | – | – | Log10 Reduction vs. Pa (Quaternium Ammonium Chloride in Acid Solution, 800 ppm Active/375 ppm Hard Water/5% Organic Soil/5 Minute Contact Time): <2.82 Log10 |
